# Assay: recombinant barcode read abundance after kanamycin selection (control-corrected) (log10(CPM+1)); higher = more efficient recombination; sequences stand for … in AGTGCAGAGAAAATCGGCCAGTTTTCTCTGCCTGCAGTCCGCATGCCGT…AGATTTATGCAGCGGACTGCCTTTCTCCCAAAGTGATAAACCGGACAGTATCATGGACCGGTTTTCCCGGTAATCCGTATTTGCAAGGTTGGTTTCACT; site = the 11-nt target
# Protocol: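 Pooled E. coli target-specificity screen for the IS621 bridge recombinase. Each library plasmid pairs an 11-nt target (CT core) with a bridge RNA whose target-binding loop (9-nt LTG + 4-nt RTG) is reprogrammed; the rest of the 177-nt WT IS621 bridge RNA scaffold is fixed. The plasmid is co-electroporated with a WT donor plasmid; recombinase is induced with 0.1 mM IPTG and recombinants are selected on kanamycin. Recombinant barcodes are sequenced, converted to CPM, averaged over two biological replicates and corrected by the unselected control CPM. Molecule = full bridge RNA written as DNA: LTG = specificity nt 1-9, RTG = reverse complement of specificity nt 8-11, in the WT scaffold.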
# 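Also: IS621 recombinase and bridge RNA in Escherichia coli cells.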
row,Sequence,recombinant barcode read abundance (log10)
1,AAGGGGTCTTGGGTTCTAACCTGTTGCCT (site AAGGGGTCTAG),2.93
2,AAGGGGTCTTGGGTTCTAACCTGTTGCCT (site TACGGGTCTAG),0.112
3,AAGGTCCCTTGGGTTCTAACCTGTTGCCA (site AAGGTCCCTTG),1.85
4,AAGGTCCCTTGGGTTCTAACCTGTTGCCA (site AAGGTTCCTTA),0.0911
5,AAGTCGTCTTGGGTTCTAACCTGTTGCCT (site AAGTCGTCTAG),0.832
6,AAGTCGTCTTGGGTTCTAACCTGTTGCCT (site ACGTCGTCTAG),0.0906
7,AAGTCGTCTTGGGTTCTAACCTGTTGCCT (site AGGTCGTCTAG),0.126
8,AAGTCGTCTTGGGTTCTAACCTGTTGCCT (site ATGTCGTCTAG),0.0249
9,AAGTCGTCTTGGGTTCTAACCTGTTGCTA (site AAGTCGTCTTA),0.857
10,AAGTCGTCTTGGGTTCTAACCTGTTGCTA (site GCAATTGCTAG),0.132
11,AAGTGCTCTTGGGTTCTAACCTGTTGCCG (site AAGTGCTCTCG),1.89
12,AAGTGCTCTTGGGTTCTAACCTGTTGCCG (site AGGTGCCCTCG),0.0892
13,AAGTTTCCTTGGGTTCTAACCTGTTGCAT (site AAGTGTCCTAT),0.118
14,AAGTTTCCTTGGGTTCTAACCTGTTGCAT (site AAGTTTCCTAT),0.22
15,AATAACTCTTGGGTTCTAACCTGTTGCCT (site AATAACTCTAG),0.863
16,AATAACTCTTGGGTTCTAACCTGTTGCCT (site CATAACTCTAG),0.0701
17,AATAACTCTTGGGTTCTAACCTGTTGCCT (site GATAACTCTAG),0.111
18,AATAACTCTTGGGTTCTAACCTGTTGCCT (site TATAACTCTAG),0.139
19,AATAAGTCTTGGGTTCTAACCTGTTGCCT (site AATAAGTCTAG),0.483
20,AATAAGTCTTGGGTTCTAACCTGTTGCCT (site ACTAAGTCTAG),0.0757
21,AATAAGTCTTGGGTTCTAACCTGTTGCCT (site AGTAAGTCTAG),0.566

row,Sequence,recombinant barcode read abundance (log10)
1,AATAAGTCTTGGGTTCTAACCTGTTGCCT (site ATTAAGTCTAG),0.122
2,AATAGAGCTTGGGTTCTAACCTGTTGCAG (site AAGTGAGCTCT),0.0557
3,AATAGAGCTTGGGTTCTAACCTGTTGCAG (site AATAGAGCTCT),2.23
4,AATAGGACTTGGGTTCTAACCTGTTGCTA (site AATAAGACTTG),0.0927
5,AATAGGACTTGGGTTCTAACCTGTTGCTA (site AATAGGACTTA),0.896
6,AATAGGGCTTGGGTTCTAACCTGTTGCGG (site AATAGGGCTCC),2.21
7,AATAGGGCTTGGGTTCTAACCTGTTGCGG (site ACTAGGGCTCC),0.294
8,AATCGGCCTTGGGTTCTAACCTGTTGCGT (site AATAGGCCTAC),0.375
9,AATCGGCCTTGGGTTCTAACCTGTTGCGT (site AATCGGCCTAC),1.85
10,AATCGGCCTTGGGTTCTAACCTGTTGCGT (site AATGGGCCTAC),0.0625
11,AATCGGCCTTGGGTTCTAACCTGTTGCGT (site AATTGGCCTAC),0.175
12,AATGCTACTTGGGTTCTAACCTGTTGCAT (site AATGCTACTAT),0.235
13,AATGCTACTTGGGTTCTAACCTGTTGCAT (site TATGCTACTAT),0.238
14,AATGCTCCTTGGGTTCTAACCTGTTGCGT (site AATGCTCCTAA),0.116
15,AATGCTCCTTGGGTTCTAACCTGTTGCGT (site AATGCTCCTAC),2.03
16,AATGCTCCTTGGGTTCTAACCTGTTGCGT (site AATGCTCCTAG),0.419
17,AATGCTCCTTGGGTTCTAACCTGTTGCGT (site AATGCTCCTAT),0.177
18,AATGCTCCTTGGGTTCTAACCTGTTGCTT (site AATGCTCCTAA),0.49
19,AATGCTCCTTGGGTTCTAACCTGTTGCTT (site AATGCTCCTAC),0.0515
20,AATGCTCCTTGGGTTCTAACCTGTTGCTT (site AATGCTCCTAG),0.103
21,AATGCTCCTTGGGTTCTAACCTGTTGCTT (site AATGCTCCTAT),0.135

row,Sequence,recombinant barcode read abundance (log10)
1,AATGCTTCTTGGGTTCTAACCTGTTGCTT (site AATGCTTCTAA),0.398
2,AATGCTTCTTGGGTTCTAACCTGTTGCTT (site GATGCTTCTAA),0.143
3,AATGGGACTTGGGTTCTAACCTGTTGCGA (site AATGGGACTCA),0.331
4,AATGGGACTTGGGTTCTAACCTGTTGCGA (site AATGGGACTTC),2.42
5,AATGGGACTTGGGTTCTAACCTGTTGCTG (site AATGGGACTCA),2.47
6,AATGGGACTTGGGTTCTAACCTGTTGCTG (site AATGGGACTTC),1.55
7,AATGGTCCTTGGGTTCTAACCTGTTGCCA (site AATGGTCCTTG),0.588
8,AATGGTCCTTGGGTTCTAACCTGTTGCCA (site CTAATATCTAT),0.337
9,AATTAGTCTTGGGTTCTAACCTGTTGCGG (site AATTAGTCTCC),2.2
10,AATTAGTCTTGGGTTCTAACCTGTTGCGG (site AGTTAGTCTCC),0.312
11,AATTGAGCTTGGGTTCTAACCTGTTGCCT (site AATTAAGCTAG),0.0773
12,AATTGAGCTTGGGTTCTAACCTGTTGCCT (site AATTCAGCTAG),0.0625
13,AATTGAGCTTGGGTTCTAACCTGTTGCCT (site AATTGAGCTAG),0.887
14,AATTGAGCTTGGGTTCTAACCTGTTGCCT (site AATTTAGCTAG),0.242
15,AATTGCCCTTGGGTTCTAACCTGTTGCCT (site AATTGCCCTAG),0.369
16,AATTGCCCTTGGGTTCTAACCTGTTGCCT (site ACTTGCCCTAG),0.00964
17,AATTGCCCTTGGGTTCTAACCTGTTGCCT (site AGTTGCCCTAG),0.0557
18,AATTGCCCTTGGGTTCTAACCTGTTGCCT (site ATTTGCCCTAG),0.166
19,AATTGGACTTGGGTTCTAACCTGTTGCTT (site AATTGGACTAA),0.355
20,AATTGGACTTGGGTTCTAACCTGTTGCTT (site CATTGGACTAA),0.0957
21,AATTGGACTTGGGTTCTAACCTGTTGCTT (site GATTGGACTAA),0.0807

row,Sequence,recombinant barcode read abundance (log10)
1,AATTGGACTTGGGTTCTAACCTGTTGCTT (site TATTGGACTAA),0.455
2,AATTGTCCTTGGGTTCTAACCTGTTGCGT (site AATTGTCCTAA),0.0377
3,AATTGTCCTTGGGTTCTAACCTGTTGCGT (site AATTGTCCTAC),1.17
4,AATTGTCCTTGGGTTCTAACCTGTTGCGT (site AATTGTCCTAG),0.154
5,AATTGTCCTTGGGTTCTAACCTGTTGCGT (site AATTGTCCTAT),0.0639
6,ACAAACCCTTGGGTTCTAACCTGTTGCTA (site ACAAACCCTTA),0.672
7,ACAAACCCTTGGGTTCTAACCTGTTGCTA (site CTGGCAGCTAG),0.85
8,ACAAATCCTTGGGTTCTAACCTGTTGCCT (site ACAAAACCTAG),0.116
9,ACAAATCCTTGGGTTCTAACCTGTTGCCT (site ACAAACCCTAG),0.292
10,ACAAATCCTTGGGTTCTAACCTGTTGCCT (site ACAAAGCCTAG),0.0186
11,ACAAATCCTTGGGTTCTAACCTGTTGCCT (site ACAAATCCTAG),0.591
12,ACAACGACTTGGGTTCTAACCTGTTGCCT (site ACAACCACTAG),0.0471
13,ACAACGACTTGGGTTCTAACCTGTTGCCT (site ACAACGACTAG),0.689
14,ACAAGGCCTTGGGTTCTAACCTGTTGCAT (site ACAAGGCCTAT),1.38
15,ACAAGGCCTTGGGTTCTAACCTGTTGCAT (site TGCCCCTCTCG),0.263
16,ACAAGGGCTTGGGTTCTAACCTGTTGCTG (site ACAAGGGCTCA),2.06
17,ACAAGGGCTTGGGTTCTAACCTGTTGCTG (site GAGGCTACTAT),0.531
18,ACAATATCTTGGGTTCTAACCTGTTGCCT (site ACAATATCTAG),0.774
19,ACAATATCTTGGGTTCTAACCTGTTGCCT (site ACATGATCTAG),0.242
